Measured values: paper PMC11530130, “Peripherally restricted PICK1 inhibitor mPD5 ameliorates pain behaviors in murine inflammatory and neuropathic pain models” (JCI Insight, 2024)
“And” between values parts separate entries of the source, which are not always exact repeats. Equal entries are not always repeated.

Tested on: mice, CIBP model (NCTC 2472 cell inoculation)
Assay: Cancer-induced bone pain (CIBP) model, von Frey
Assay type: in vivo, mouse
Conditions: for effect on PWT: CIBP, female mice
Experimental: solution (0.05 mg/kg) injected s.c. 30 min before surgery (10 μL/g). For surgery, mice were anaesthetised with ketamine (100 mg/kg, i.p.) and xylazine (10 mg/kg, i.p.) (volume 10 µL/g) with 100 μL of 1% xylocaine solution infiltrated at the site of the incision. The distal trifurcation of the sciatic nerve was identified, and the tibial and common peroneal branches were ligated with polypropylene nonabsorbable 6-0 sutures (Ethicon) and 1 mm was cut out, leaving the sural branch intact. The wound was closed with sutures, and the animals were allowed to recover and returned to their cages. Two subcutaneous injections of buprenorphine (0.05 mg/kg) were performed with an 8 to 12 hours delay decreasing pain due to the surgery […]
The remaining SNI pain experiments were performed in-house using the following procedure.
SNI surgery was performed on the left hindleg of C57BL/6J male and female mice (Janvier, France) under 2% isoflurane anaesthesia. Skin on the lateral surface was incised between hip and knee followed by lengthwise division of the biceps femoris muscle leading to exposure of the three branches of the sciatic nerve. Sural branch was left intact, while the peroneal and tibial branches were ligated with a single surgical knot and axotomized distally of the ligation.
Wounds were closed with surgical glue or medical clips and animals were monitored daily for signs of stress or discomfort, but in all cases recovered uneventfully.
Induction of Diabetic neuropathy (STZ model).
Diabetes was induced by a single i.p. injection of […] streptozocin (STZ) solution (100 μL/10 g, Sigma-Aldrich S0130, batch #WXBB7152V) in male seven-week-old C57BL/6J (Charles River) mice. Glycemia was tested before, and seven days after injection. All injected mice had blood glucose concentration >350 mg/dL from day seven and were used for analgesic testing of the compounds from day 14. One mouse had to be euthanized at seven days post injection. This experiment was performed by Phenotype Expertise, Marseilles, France - Pain and CNS behaviour CRO under supervision of Stéphane Gaillard, PhD (CEO).
Induction of cancer induced bone pain (CIBP model).
Osteosarcoma cell line NCTC 2472 (American Type Culture Collection, CCL-11TM) was cultured for two weeks prior to surgery in NCTC-135 medium (Sigma-Aldrich, Denmark) supplemented with sodium hydrogen carbonate and 10% equine serum (Sigma-Aldrich, Denmark). On the day of surgery, cells were washed with PBS and incubated with 3 mL trypsin-EDTA for five min followed by centrifugation (2800 rpm, 3 min). Supernatant was removed, and cell pellet resuspended in PBS to obtain a cell density of 10^7 cells/mL.
Two separate cohorts of female C3H/HeNHsd mice (Envigo, Netherlands) of 7-8 weeks, were anaesthetized with 6.25 mg/kg xylazine (Rompun vet, 20 mg/mL, Bayer, KVP Pharma + Veterinär Produkte GmbH, Germany, Batch: KV02BHF) and 43.75 mg/kg ketamine (Ketaminol vet, 100 mg/mL, MSD Animal Health, AN Boxmeer, The Netherlands, Batch:
A140A01) and received 1.0-1.2% isoflurane (1000 mg/g isoflurane, Attane vet, ScanVet, Piramal Critical Care Ltd., UK, Batch: G123J18B) during surgery. The mouse was placed on a 37 °C heating pad. Both hind legs were shaved, and a small horizontal incision was made under the knee followed by a vertical incision of approximately 0.5 cm until the patellar tendon was exposed. The patellar tendon was moved to the lateral side exposing the distal epiphysis of the femur. A hole was made in the middle of the distal epiphysis by gently pushing a 30 G needle (0.3x12 mm, 30 Gx1/2”, Luer-Lock, CHIRANA T. Injecta, CH30012) through the bone while rotating. The position of the needle was confirmed by X-ray imaging (IVIS Lumina XR Apparatus, Caliper Life Sciences, Belgium). Following resuspension, 10 μL, corresponding to […]
[…] NCTC 2472 cells or PBS (sham mice), was injected in the bone marrow cavity with an insulin syringe (1 mL Luer, BD PlastipakTM, 303172) attached to a 30 G needle and left in the […]
femur for one min. […]

| SMILES | von Frey paw withdrawal threshold, individual animals (Fig 4C) (BL1 (baseline 1)) | von Frey paw withdrawal threshold, individual animals (Fig 4C) (BL2 (baseline 2)) | effect on PWT (s.c. 5 mg/kg) | von Frey paw withdrawal threshold, individual animals (Fig 4C) (Post (after treatment)) | von Frey paw withdrawal threshold, individual animals (Fig 4C) (Pre (before treatment)) | effect on PWT (s.c. 10 μmol/kg) |
| --- | --- | --- | --- | --- | --- | --- |
| CN1CC[C@]23c4c5ccc(O)c4O[C@H]2[C@@H](O)C=C[C@H]3[C@H]1C5 [morphine] | 1.5 and 0.8 and 0.6 and 1 (2×) and 0.9 and 1.3 and 2 and 1.7 and 1.2 | 2.9 and 1.1 and 0.8 and 2.6 and 1.3 (2×) and 1.9 and 2.1 (2×) and 1.2 | partial but significant increase | 1.1 (2×) and 1 (2×) and 1.2 (3×) and 0.9 and 1.3 (2×) | 0.6 (2×) and 0.2 (3×) and 0.4 (3×) and 0.5 and 0.3 | – |
| CCCCCCCCCCCCCC(=O)N(CCOCCOCCC(=O)N[C@@H](Cc1c[nH]cn1)C(=O)N[C@@H](Cc1c[nH]c2ccccc12)C(=O)N[C@@H](CC(C)C)C(=O)N[C@@H](CCCCN)C(=O)N[C@H](C(=O)O)C(C)C)CCOCCOCCC(=O)N[C@@H](Cc1c[nH]cn1)C(=O)N[C@@H](Cc1c[nH]c2ccccc12)C(=O)N[C@@H](CC(C)C)C(=O)N[C@@H](CCCCN)C(=O)N[C@H](C(=O)O)C(C)C [mPD5, myristoyl-NPEG4-(HWLKV)2] | – | – | – | – | – | no effect |
